Assay results reported in patent US20240226098A1, “COMPOUNDS AND METHODS FOR MODULATING SPLICING” (REMIX THERAPEUTICS INC., priority 2020, published 2024).
pIC50: −log10 of the molar value.

Assays:
Format in all cases: cell-based
[1] = system: HTT mRNA, canonical junction (CJ); experiment: Splicing assay (RT-qPCR): decrease in HTT canonical junction (CJ) mRNA; conditions: A673 or K562 cell line, 24 hours treatment, top dose 10 uM; concentration having 50% response in CJ decrease
Description: (§1) Compounds described herein were used to modulate RNA transcript abundance in cells. The expression of a target mRNA was measured by detecting the formation of an exon-exon junction in the canonical transcript (CJ). A compound mediated exon-inclusion event was detected by observing an increase in formation of a new junction with an alternative exon (AJ). Real-time qPCR assays were used to detect these splicing switches and interrogate the potency of various compounds towards different target genes. A high-throughput real time quantitative PCR (RT-qPCR) assay was developed to measure these two isoforms of the mRNA (CJ and AJ) for an exemplary gene, HTT, together with a control housekeeping gene, GAPDH or GUSB or PPIA, used for normalization. Briefly, the A673 or K562 cell line was treated with various compounds described herein (e.g., compounds of Formula (I)). After treatment, the levels of the HTT mRNA targets were determined from each sample of cell lysate by cDNA synthesis followed by qPCR.
(§2) • Cells-to-CT 1-step kit: ThermoFisher A25602, Cells-to-CT lysis reagent: ThermoFisher 4391851C, TaqMan™ Fast Virus 1-Step Master Mix: ThermoFisher 4444436 • GAPDH: VIC-PL, ThermoFisher 4326317E (Assay: Hs99999905_ml)—used for K562/suspension cell lines • GUSB: VIC-PL, ThermoFisher 4326320E (Assay: Hs99999908_ml)—used for K562/suspension cell lines • PPIA: VIC-PL, ThermoFisher 4326316E (Assay: Hs99999904_ml)—used for A673/adherent cell lines
(§3) The A673 cell line was cultured in DMEM with 10% FBS. Cells were diluted with full growth media and plated in a 96-well plate (15,000 cells in 100 ul media per well). The plate was incubated at 37° C. with 5% CO2 for 24 hours to allow cells to adhere. An 11-point 3-fold serial dilution of the compounds was made in DMSO then diluted in media in an intermediate plate. Compounds were transferred from the intermediate plate to the cell plate with the top dose at a final concentration of 10 uM in the well. Final DMSO concentration was kept at or below 0.25%. The cell plate was returned to the incubator at 37° C. with 5% CO2 for an additional 24 hours.
(§4) The K562 cell line was cultured in IMDM with 10% FBS. For K562, cells were diluted with full growth media and plated in either a 96-well plate (50,000 cells in 50 uL media per well) or a 384-well plate (8,000-40,000 cells in 45 uL media per well). An 11-point 3-fold serial dilution of the compounds were made in DMSO then diluted in media in an intermediate plate. Compound was transferred from the intermediate plate to the cell plate with the top dose at a final concentration of 10 uM in the well. Final DMSO concentration was kept at or below 0.25%. Final volume was 100 uL for 96-well plate and 50 uL for 384-well plate. The cell plate was then placed in an incubator at 37° C. with 5% CO2 for 24 hours.
(§5) The cells were then gently washed with 50 uL-100 uL cold PBS before proceeding to addition of lysis buffer. 30 uL-50 uL of room temperature lysis buffer with DNAse I (and optionally RNAsin) was added to each well. Cells were shaken/mixed thoroughly at room temperature for 5-10 minutes for lysis to take place and then 3 uL-5 uL of room temperature stop solution was added and wells were shaken/mixed again. After 2-5 minutes, the cell lysate plate was transferred to ice for RT-qPCR reaction setup. The lysates could also be frozen at −80° C. for later use.
(§6) In some cases, a direct lysis buffer was used. An appropriate volume of 3× lysis buffer (10 mM Tris, 150 mM NaCl, 1.5%-2.5% Igepal and 0.1-1 U/uL RNAsin, pH 7.4) was directly added to either K562 or A673 cells in media and mixed by pipetting 3 times. The plates were then incubated at room temperature with shaking/rocking for 20-50 minutes to allow for lysis to take place. After this time, the cell lysate plate was transferred to ice to set up for the RT-qPCR reactions. The lysates could also be frozen at −80° C. for later use. […]

HTT CJ mRNA = experiment: Gene panel canonical junction qPCR assay: decrease in HTT CJ mRNA; conditions: protocol as for Table 2, read-out: HTT (IC50, decrease in CJ mRNA levels)
Description: as §1, §3, §4, §5
(§7) In some cases, a direct lysis buffer was used. An appropriate volume of 3× lysis buffer (10 mM Tris, 150 mM NaCl, 1.5%-2.5% Igepal and 0.1-1 U/uL RNAsin, pH 7.4) was directly added to either K562 or A673 cells in media and mixed by pipetting 3 times. The plates were then incubated at room temperature with shaking/rocking for 20-50 minutes to allow for lysis to take place. After this time, the cell lysate plate was transferred to ice to set up for the RT-qPCR reactions. The lysates could also be frozen at −80° C. for later use.
(§8) To set up 10 uL RT-qPCR reactions, cell lysates were transferred to 384-well qPCR plates containing the master mix according to the table below. The plates were sealed, gently vortexed, and spun down before the run. The volumes were adjusted accordingly in some instances where the reaction was carried in 20 uL. The table below summarizes the components of the RT-qPCR reactions:
(§9) The RT-qPCR reaction was performed using a QuantStudio (ThermoFisher) under the following fast cycling conditions. […]

Target C CJ mRNA = experiment: Gene panel canonical junction qPCR assay: decrease in Target C CJ mRNA; conditions: protocol as for Table 2, read-out: Target C (IC50, decrease in CJ mRNA levels)
Description: as §1, §3, §4, §5, §7, §8, §9

[2] = system: HTT mRNA, alternative junction (AJ); experiment: Splicing assay (RT-qPCR): increase in HTT alternative junction (AJ) mRNA; conditions: A673 or K562 cell line, 24 hours treatment, top dose 10 uM; concentration having 50% response in AJ increase
Description: as §1, §2, §3, §4, §5, §6

SMN2 CJ mRNA = experiment: Gene panel canonical junction qPCR assay: decrease in SMN2 CJ mRNA; conditions: protocol as for Table 2, read-out: SMN2 (IC50, decrease in CJ mRNA levels)
Description: as §1, §3, §4, §5, §7, §8, §9

SMILES	AC50 [1]	pIC50 (HTT CJ mRNA)	pIC50 (Target C CJ mRNA)	AC50 [2]	pIC50 (SMN2 CJ mRNA)
Cc1cn2cc(NC(=O)c3ccc(N4CCNC(C)C4)c4nccnc34)cc(F)c2n1 (stereo not shown) [Compound 157, N-[8-fluoro-2-methylimidazo[1,2-a]pyridin-6-yl]-8-(3-methylpiperazin-1-yl)quinoxaline-5-carboxamide]	100 to 1000 nM	6.00 to 7.00	5.00 to 6.00	100 to 1000 nM	> 7.00
Cc1cn2cc(NC(=O)c3ccc(N4C[C@H]5C[C@@H]4C5N(C)C)c4ccnnc34)cc(F)c2n1 (stereo partly shown) [Compound 155]	> 10000 nM	< 5.00	< 5.00	> 10000 nM	6.00 to 7.00
Cc1cn2cc(NC(=O)c3ccc(N4CCNCC4)c4ccnnc34)c(C)cc2n1 [Compound 119, N-[2,7-dimethylimidazo[1,2-a]pyridin-6-yl]-5-(piperazin-1-yl) cinnoline-8-carboxamide]	1000 to 10000 nM	5.00 to 6.00	5.00 to 6.00	1000 to 10000 nM	> 7.00
Cc1cn2cc(NC(=O)c3ccc(N4CC5(CN(C)C5)C4)c4ccnnc34)cc(F)c2n1 [Compound 132, N-[8-fluoro-2-methylimidazo[1,2-a]pyridin-6-yl]-5-[6-methyl-2,6-diazaspiro[3.3]heptan-2-yl]cinnoline-8-carboxamide]	1000 to 10000 nM	5.00 to 6.00	> 7.00	1000 to 10000 nM	> 7.00
Cc1cn2nc(NC(=O)c3ccc(N4CCNCC4)c4ccnnc34)nc2c(C)n1 [Compound 122]	1000 to 10000 nM	5.00 to 6.00	5.00 to 6.00	1000 to 10000 nM	5.00 to 6.00
Cc1cn2cc(NC(=O)c3ccc(N4CCNC(C)C4)c4ccnnc34)cc(F)c2n1 (stereo not shown) [Compound 128, N-[8-fluoro-2-methylimidazo[1,2-a]pyridin-6-yl]-5-(3-methylpiperazin-1-yl) cinnoline-8-carboxamide]	100 to 1000 nM	6.00 to 7.00	6.00 to 7.00	100 to 1000 nM	> 7.00
CCC1CN(c2ccc(C(=O)Nc3cc(F)c4nc(C)cn4c3)c3nnccc23)CCN1 (stereo in doubt) [Compound 152, 5-[(3R)-3-ethylpiperazin-1-yl]-N-[8-fluoro-2-methylimidazo[1,2-a]pyridin-6-yl]cinnoline-8-carboxamide]	1000 to 10000 nM	5.00 to 6.00	< 5.00	1000 to 10000 nM	> 7.00
CCC1CN(c2ccc(C(=O)Nc3cc(F)c4nc(C)cn4c3)c3nnccc23)CCN1 (stereo in doubt) [Compound 151, 5-[(3S)-3-ethylpiperazin-1-yl]-N-[8-fluoro-2-methylimidazo[1,2-a]pyridin-6-yl]cinnoline-8-carboxamide]	1000 to 10000 nM	5.00 to 6.00	< 5.00	1000 to 10000 nM	> 7.00
Cc1cn2cc(NC(=O)c3ccc(N(C)[C@@H]4C[C@H]5CC[C@@H](C4)N5)c4ccnnc34)cc(F)c2n1 [Compound 156, 5-[(exo)-8-azabicyclo[3.2.1]octan-3-yl(methyl)amino]-N-[8-fluoro-2-methylimidazo[1,2-a]pyridin-6-yl]cinnoline-8-carboxamide]	> 10000 nM	< 5.00	< 5.00	> 10000 nM	6.00 to 7.00
Cc1cn2cc(NC(=O)c3ccc(N4C[C@H]5CC[C@@H](C4)N5)c4ccnnc34)cc(F)c2n1 [Compound 108]	1000 to 10000 nM	5.00 to 6.00	6.00 to 7.00	1000 to 10000 nM	> 7.00
Cc1cn2cc(NC(=O)c3ccc(N4CC5(CNC5)C4)c4ccnnc34)cc(F)c2n1 [Compound 131, 5-[2,6-diazaspiro[3.3]heptan-2-yl]-N-[8-fluoro-2-methylimidazo[1,2-a]pyridin-6-yl]cinnoline-8-carboxamide]	1000 to 10000 nM	5.00 to 6.00	6.00 to 7.00	1000 to 10000 nM	> 7.00
